Laboratory results as given in EP0394553A2, “Use of fluorine containing pyridone carboxylic acid derivatives for preparing a medicament for the treatment of HIV infections” (DAIICHI PHARMACEUTICAL CO., LTD., priority 1989, dated 1990).
Like-named read-outs stand apart in the source and are kept apart here.

Test system: HIV (LAV 1)
Test: microbe, parasite or virus in culture
Details: for Viable cell count / Viral antigen-positive cell percentage: 4-day addition; for viability at 1 µg/mL / viability at 10 µg/mL: Human immunodeficiency virus 1, CCRF-CEM
Method: Human T cell-derived, T4 antigen-positive CEM cells (provided by the Institut Pasteur, France) were used as host cells of HIV. Cell culture was carried out in a carbon dioxide-containing atmosphere in an incubator maintained at 37°C according to a conventional method [cf. […] The culture supernatant (5×10⁶ TCID₅₀/ml) obtained by subjecting CEM cells to HIV (LAV 1) infection and stored at -70°C was used as the HIV source.
The medium for cell culture (10 ml) placed in a plastic culture flask (25 cm²) was inoculated with CEM cells at a cell density of 2.5×10⁵ cells/ml. After 3 days of incubation, the culture was transferred to a 15-ml centrifuge tube and subjected to centrifugation at 1,000 revolutions per minute for 5 minutes for sedimentation of cells and removal of the culture medium.
The stock viral suspension was added to the host cells thus prepared to an MOI of 0.05 and the mixture was maintained at 37°C for 90 minutes with stirring at 30-minute intervals for viral adsorption. The medium was added to HIV-infected cells to a cell density of 5.0×10⁵ cells/ml to give an HIV-infected cell suspension.
A mixture (1.0 ml) of the three constituents mentioned below was added to each well of a 24-well plastic culture plate and the test substance final concentration was adjusted to 10 mcg/ml, 5 mcg/ml, 2.5 mcg/ml or 1 mcg/ml. The "no addition" wells (0 mcg/ml) served as controls.
After 4 days of incubation following viral infection, the cells in each well on the 24-well culture plate were suspended uniformly by pipetting and a 0.5-ml portion of the suspension was separated. A 2.0-ml portion of test substance-free fresh medium was added to the remaining 0.5-ml portion of the cell suspension, followed by incubation.
Seven days after viral infection, pipetting was performed to give a uniform cell suspension in each well and a 0.5-ml portion of the suspension was separated.
Incubation was continued and, 10 days after viral infection, a uniform cell suspension was produced in the same manner in each well and a 1.5-ml portion thereof was separated. A fresh 2.0-ml portion of the medium free of (or containing) the test substance was added to the well, followed by further incubation.
Fifteen days after viral infection, the cells in each well were suspended uniformly in the same manner in the medium and a 2.0-ml portion of the suspension was separated. A fresh 2.0-ml portion of the medium free of (or containing) the test substance was added to the remaining 0.5 ml of the cell suspension and incubation was continued.
Medium exchange was performed in the same manner 20 days and 25 days after viral infection.
The cell suspensions collected 4 days, 7 days, 10 days, 20 days and 30 days after viral infection were tested for viable cell count and viable cell percentage by trypan blue staining. At the same time, viral antigen-positive cell percentage determination was carried out by immunofluorescence using an anti-HIV antiserum isolated from a healthy carrier of HIV.
The numerical values given each is the mean for the respective two wells on the culture plate. The viable cell count is the total cell count minus the count of dead cells stained with trypan blue. The viable cell percentage is the percentage of viable cells among all the cells including dead cells. The viral antigen-positive cell percentage is the percentage of cells indicating antigen expression as found among all the cells including dead cells.

[1] = 96 h, read-out: Viable cell percentage, 1 mcg/ml, 4-day addition, after 4 days
[2] = 96 h, read-out: Viable cell percentage, 10 mcg/ml, 4-day addition, after 4 days
[3] = read-out: Viable cell percentage, 1 mcg/ml, 4-day addition, after 7 days
[4] = read-out: Viable cell percentage, 1 mcg/ml, 4-day addition, after 10 days
[5] = read-out: Viable cell percentage, 1 mcg/ml, 4-day addition, after 20 days
[6] = read-out: Viable cell percentage, 1 mcg/ml, 4-day addition, after 30 days
[7] = read-out: Viable cell percentage, 10 mcg/ml, 4-day addition, after 7 days
[8] = read-out: Viable cell percentage, 10 mcg/ml, 4-day addition, after 10 days
[9] = read-out: Viable cell percentage, 10 mcg/ml, 4-day addition, after 20 days
[10] = read-out: Viable cell percentage, 10 mcg/ml, 4-day addition, after 30 days

SMILES	Viable cell count (1 mcg/ml, after 4 days) [× 10⁴ cells/ml]	Viral antigen-positive cell percentage (1 mcg/ml, after 4 days) [%]	Viable cell count (1 mcg/ml, after 7 days) [× 10⁴ cells/ml]	Viral antigen-positive cell percentage (1 mcg/ml, after 7 days) [%]	Viable cell count (1 mcg/ml, after 10 days) [× 10⁴ cells/ml]	Viable cell count (1 mcg/ml, after 20 days) [× 10⁴ cells/ml]	Viable cell count (1 mcg/ml, after 30 days) [× 10⁴ cells/ml]	Viable cell count (10 mcg/ml, after 4 days) [× 10⁴ cells/ml]	Viral antigen-positive cell percentage (10 mcg/ml, after 4 days) [%]	Viable cell count (10 mcg/ml, after 7 days) [× 10⁴ cells/ml]	Viral antigen-positive cell percentage (10 mcg/ml, after 7 days) [%]	Viable cell count (10 mcg/ml, after 10 days) [× 10⁴ cells/ml]	Viral antigen-positive cell percentage (10 mcg/ml, after 10 days) [%]	Viable cell count (10 mcg/ml, after 20 days) [× 10⁴ cells/ml]	Viral antigen-positive cell percentage (10 mcg/ml, after 20 days) [%]	Viable cell count (10 mcg/ml, after 30 days) [× 10⁴ cells/ml]	Viral antigen-positive cell percentage (10 mcg/ml, after 30 days) [%]	viability at 1 µg/mL [1] [%]	viability at 10 µg/mL [2] [%]	viability at 1 µg/mL [3] [%]	also measured
CCN1CCN(c2c(F)cc3c(=O)c(C(=O)O)cn4c3c2OCC4C)CC1 (racemic) [IIIa, (±)-9-Fluoro-3-methyl-10-(4-ethyl-1-piperazinyl)-7-oxo-2,3-dihydro-7H-pyrido[1,2,3-de][1,4]benzoxazine-6-carboxylic acid]	240	72	37	65	19	20	14	180	82	61	75	260	26	310	18	330	6	92	88	57	Viral antigen-positive cell percentage (1 mcg/ml, after 10 days): 30%; Viral antigen-positive cell percentage (1 mcg/ml, after 20 days): 20%; viability at 1 µg/mL [4]: 30%; viability at 1 µg/mL [5]: 78%; viability at 1 µg/mL [6]: 40%; viability at 10 µg/mL [7]: 74%; viability at 10 µg/mL [8]: 93%; viability at 10 µg/mL [9]: 91%; viability at 10 µg/mL [10]: 94%
CCCN1CCN(c2c(F)cc3c(=O)c(C(=O)O)cn4c3c2OCC4C)CC1 (racemic) [IIIb, (±)-9-Fluoro-3-methyl-10-(4-n-propyl-1-piperazinyl)-7-oxo-2,3-dihydro-7H-pyrido[1,2,3-de][1,4]benzoxazine-6-carboxylic acid]	220	88	53	62	19	25	14	190	80	62	50	240	40	320	13	300	4	89	89	75	viability at 1 µg/mL [4]: 27%; viability at 1 µg/mL [5]: 81%; viability at 1 µg/mL [6]: 36%; viability at 10 µg/mL [7]: 70%; viability at 10 µg/mL [8]: 83%; viability at 10 µg/mL [9]: 92%; viability at 10 µg/mL [10]: 94%
CCCCN1CCN(c2c(F)cc3c(=O)c(C(=O)O)cn4c3c2OCC4C)CC1 (racemic) [IIIc, (±)-9-Fluoro-3-methyl-10-(4-n-butyl-1-piperazinyl)-7-oxo-2,3-dihydro-7H-pyrido[1,2,3-de][1,4]benzoxazine-6-carboxylic acid]	220	82	46	70	28	10	10	200	80	51	47	250	9	340	9	320	3	87	92	60	viability at 1 µg/mL [4]: 33%; viability at 1 µg/mL [5]: 55%; viability at 1 µg/mL [6]: 32%; viability at 10 µg/mL [7]: 67%; viability at 10 µg/mL [8]: 93%; viability at 10 µg/mL [9]: 93%; viability at 10 µg/mL [10]: 95%
CC(C)N1CCN(c2c(F)cc3c(=O)c(C(=O)O)cn4c3c2OCC4C)CC1 (racemic) [IIId, (±)-9-Fluoro-3-methyl-10-(4-isopropyl-1-piperazinyl)-7-oxo-2,3-dihydro-7H-pyrido[1,2,3-de][1,4]benzoxazine-6-carboxylic acid]	250	72	50	70	24	12	9	190	78	60	50	280	25	290	11	300	4	91	88	62	viability at 1 µg/mL [4]: 28%; viability at 1 µg/mL [5]: 60%; viability at 1 µg/mL [6]: 31%; viability at 10 µg/mL [7]: 67%; viability at 10 µg/mL [8]: 91%; viability at 10 µg/mL [9]: 95%; viability at 10 µg/mL [10]: 94%
